Columns and labels:
Assay in all cases: relative viability (nuclei count vs DMSO), 5 days (fraction); higher = more cells survive
NCI-H520 = tested on: NCI-H520
In short: (§1)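 The day after seeding in 1536-well plates, lung cancer cell lines were treated by pin tool with a single drug, or with a fixed anchor-drug dose together with five library-drug doses (not always all listed) in √10 steps. After 5 days, a combined fix-and-stain solution (final 0.05% Triton X-100, 1% formaldehyde, 1 ug/ml Hoechst) was added. Nuclei counted on 4× images gave relative viability as treated counts over vehicle counts, reported as the median of duplicate plates.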

NCI-H1755 = tested on: NCI-H1755
In short: as §1

PC-3 [JPC-3] = tested on: PC-3 [JPC-3]
In short: as §1

LK-2 = tested on: LK-2
In short: as §1

NCI-H596 = tested on: NCI-H596
In short: as §1

ChaGo-K-1 = tested on: ChaGo-K-1
In short: as §1

EKVX = tested on: EKVX
In short: as §1

NCI-H441 = tested on: NCI-H441
In short: as §1

A-427 = tested on: A-427
In short: as §1

COR-L 105 = tested on: COR-L 105
In short: as §1

SK-MES-1 = tested on: SK-MES-1
In short: as §1

H3255 = tested on: H3255
In short: as §1

NCI-H23 = tested on: NCI-H23
In short: as §1

NCI-H2170 = tested on: NCI-H2170
In short: as §1

SW 900 = tested on: SW 900
In short: as §1

LOU-NH91 = tested on: LOU-NH91
In short: as §1

NCI-H1975 = tested on: NCI-H1975
In short: as §1

HCC-366 = tested on: HCC-366
In short: as §1

NCI-H1734 = tested on: NCI-H1734
In short: as §1

EMC-BAC-2 = tested on: EMC-BAC-2
In short: as §1

NCI-H1666 = tested on: NCI-H1666
In short: as §1

Compound: Cc1sc2c(c1C)C(c1ccc(Cl)cc1)=N[C@@H](CC(=O)OC(C)(C)C)c1nnc(C)n1-2 [JQ1] + Nc1ncn([C@H]2C[C@H](O)[C@@H](CO)O2)c(=O)n1 [Decitabine] (partner 2 µM)
- relative viability (NCI-H520; first compound 0.04 µM): 0.52
- relative viability (NCI-H520; first compound 0.1265 µM): 0.561
- relative viability (NCI-H520; first compound 0.4 µM): 0.443
- relative viability (NCI-H520; first compound 1.265 µM): 0.349
- relative viability (NCI-H520; first compound 4 µM): 0.355
- relative viability (NCI-H1755; first compound 0.04 µM): 0.744
- relative viability (NCI-H1755; first compound 0.1265 µM): 0.738
- relative viability (NCI-H1755; first compound 0.4 µM): 0.747
- relative viability (NCI-H1755; first compound 1.265 µM): 0.731
- relative viability (NCI-H1755; first compound 4 µM): 0.719
- relative viability (PC-3 [JPC-3]; first compound 0.04 µM): 0.864
- relative viability (PC-3 [JPC-3]; first compound 0.1265 µM): 0.796
- relative viability (PC-3 [JPC-3]; first compound 0.4 µM): 0.778
- relative viability (PC-3 [JPC-3]; first compound 1.265 µM): 0.509
- relative viability (PC-3 [JPC-3]; first compound 4 µM): 0.561
- relative viability (LK-2; first compound 0.04 µM): 0.272
- relative viability (LK-2; first compound 0.1265 µM): 0.351
- relative viability (LK-2; first compound 0.4 µM): 0.27
- relative viability (LK-2; first compound 1.265 µM): 0.132
- relative viability (LK-2; first compound 4 µM): 0.129
- relative viability (NCI-H596; first compound 0.04 µM): 1.04
- relative viability (NCI-H596; first compound 0.1265 µM): 0.978
- relative viability (NCI-H596; first compound 0.4 µM): 0.679
- relative viability (NCI-H596; first compound 1.265 µM): 0.611
- relative viability (NCI-H596; first compound 4 µM): 0.62
- relative viability (ChaGo-K-1; first compound 0.04 µM): 0.552
- relative viability (ChaGo-K-1; first compound 0.1265 µM): 0.472
- relative viability (ChaGo-K-1; first compound 0.4 µM): 0.539
- relative viability (ChaGo-K-1; first compound 1.265 µM): 0.392
- relative viability (ChaGo-K-1; first compound 4 µM): 0.36
- relative viability (EKVX; first compound 0.04 µM): 0.338
- relative viability (EKVX; first compound 0.1265 µM): 0.36
- relative viability (EKVX; first compound 0.4 µM): 0.359
- relative viability (EKVX; first compound 1.265 µM): 0.35
- relative viability (EKVX; first compound 4 µM): 0.336
- relative viability (NCI-H441; first compound 0.04 µM): 0.257
- relative viability (NCI-H441; first compound 0.1265 µM): 0.266
- relative viability (NCI-H441; first compound 0.4 µM): 0.251
- relative viability (NCI-H441; first compound 1.265 µM): 0.152
- relative viability (NCI-H441; first compound 4 µM): 0.17
- relative viability (A-427; first compound 0.04 µM): 0.57
- relative viability (A-427; first compound 0.1265 µM): 0.506
- relative viability (A-427; first compound 0.4 µM): 0.591
- relative viability (A-427; first compound 1.265 µM): 0.495
- relative viability (A-427; first compound 4 µM): 0.478
- relative viability (COR-L 105; first compound 0.04 µM): 0.558
- relative viability (COR-L 105; first compound 0.1265 µM): 0.457
- relative viability (COR-L 105; first compound 0.4 µM): 0.399
- relative viability (COR-L 105; first compound 1.265 µM): 0.33
- relative viability (COR-L 105; first compound 4 µM): 0.386
- relative viability (SK-MES-1; first compound 0.04 µM): 0.347
- relative viability (SK-MES-1; first compound 0.1265 µM): 0.385
- relative viability (SK-MES-1; first compound 0.4 µM): 0.315
- relative viability (SK-MES-1; first compound 1.265 µM): 0.194
- relative viability (SK-MES-1; first compound 4 µM): 0.216
- relative viability (H3255; first compound 0.04 µM): 0.562
- relative viability (H3255; first compound 0.4 µM): 0.539
- relative viability (H3255; first compound 1.265 µM): 0.305
- relative viability (H3255; first compound 4 µM): 0.249
- relative viability (NCI-H23; first compound 0.04 µM): 0.323
- relative viability (NCI-H23; first compound 0.1265 µM): 0.3
- relative viability (NCI-H23; first compound 0.4 µM): 0.303
- relative viability (NCI-H23; first compound 1.265 µM): 0.244
- relative viability (NCI-H23; first compound 4 µM): 0.211
- relative viability (NCI-H2170; first compound 0.04 µM): 0.415
- relative viability (NCI-H2170; first compound 0.1265 µM): 0.441
- relative viability (NCI-H2170; first compound 0.4 µM): 0.473
- relative viability (NCI-H2170; first compound 1.265 µM): 0.345
- relative viability (NCI-H2170; first compound 4 µM): 0.255
- relative viability (SW 900; first compound 0.04 µM): 0.431
- relative viability (SW 900; first compound 0.1265 µM): 0.472
- relative viability (SW 900; first compound 0.4 µM): 0.426
- relative viability (SW 900; first compound 1.265 µM): 0.307
- relative viability (SW 900; first compound 4 µM): 0.235
- relative viability (LOU-NH91; first compound 0.04 µM): 0.826
- relative viability (LOU-NH91; first compound 0.1265 µM): 0.725
- relative viability (LOU-NH91; first compound 0.4 µM): 0.554
- relative viability (LOU-NH91; first compound 1.265 µM): 0.491
- relative viability (LOU-NH91; first compound 4 µM): 0.521
- relative viability (NCI-H1975; first compound 0.04 µM): 0.393
- relative viability (NCI-H1975; first compound 0.1265 µM): 0.282
- relative viability (NCI-H1975; first compound 0.4 µM): 0.331
- relative viability (NCI-H1975; first compound 1.265 µM): 0.261
- relative viability (NCI-H1975; first compound 4 µM): 0.232
- relative viability (HCC-366; first compound 0.04 µM): 0.309
- relative viability (HCC-366; first compound 0.4 µM): 0.35
- relative viability (HCC-366; first compound 1.265 µM): 0.36
- relative viability (HCC-366; first compound 4 µM): 0.293
- relative viability (NCI-H1734; first compound 0.04 µM): 0.492
- relative viability (NCI-H1734; first compound 0.1265 µM): 0.549
- relative viability (NCI-H1734; first compound 0.4 µM): 0.523
- relative viability (NCI-H1734; first compound 1.265 µM): 0.408
- relative viability (NCI-H1734; first compound 4 µM): 0.364
- relative viability (EMC-BAC-2; first compound 0.04 µM): 0.947
- relative viability (EMC-BAC-2; first compound 0.4 µM): 0.944
- relative viability (EMC-BAC-2; first compound 1.265 µM): 0.726
- relative viability (EMC-BAC-2; first compound 4 µM): 0.605
- relative viability (NCI-H1666; first compound 0.04 µM): 0.763
- relative viability (NCI-H1666; first compound 0.1265 µM): 0.745
- relative viability (NCI-H1666; first compound 0.4 µM): 0.577
- relative viability (NCI-H1666; first compound 1.265 µM): 0.589
- relative viability (NCI-H1666; first compound 4 µM): 0.504

From the supplement of paper PMC10307832
